Test results reported in ChEMBL document CHEMBL5154879, “Induction of Genes Implicated in Stress Response and Autophagy by a Novel Quinolin-8-yl-nicotinamide QN523 in Pancreatic Cancer” (J Med Chem, 2022).

Key:
[1] = test system: MIA PaCa-2; experiment: Cytotoxicity against human MIA PaCa-2 cells assessed as inhibition of cell growth incubated for 72 hrs by MTT assay; format: functional, cell-based; conditions: MIA PaCa-2, 72 h
[2] = test system: PANC-1; experiment: Cytotoxicity against human PANC-1 cells assessed as inhibition of cell growth incubated for 72 hrs by MTT assay; format: functional, cell-based; conditions: PANC-1, 72 h
[3] = test system: BXPC-3; experiment: Cytotoxicity against human BXPC-3 cells assessed as inhibition of cell growth incubated for 72 hrs by MTT assay; format: functional, cell-based; conditions: BXPC-3, 72 h
[4] = test system: MIA PaCa-2; experiment: Induction of apoptosis in human MIA PaCa-2 cells assessed as late apoptotic cells at 0.1 uM incubated for 48 hrs by Annexin V-FITC/PI staining based flow cytometry analysis (reference value: 0.8%); format: functional
[5] = Cytotoxicity against human HFF-1 cells assessed as inhibition of cell growth incubated for 72 hrs by MTT assay; format: toxicity, cell-based
[6] = Cytotoxicity against HEK293 cells assessed as inhibition of cell growth incubated for 72 hrs by MTT assay; format: toxicity, cell-based; conditions: human
[7] = Cytotoxicity against human HPDE cells assessed as inhibition of cell growth incubated for 72 hrs by MTT assay; format: toxicity, cell-based
[8] = test system: MIA PaCa-2; experiment: Induction of cell cycle arrest in human MIA PaCa-2 cells assessed as accumulation of cells at S phase at 0.1 uM incubated for 24 hrs by RNase/propidium iodide staining based flow cytometry analysis (Rvb =27.6 %); format: functional
[9] = test system: MIA PaCa-2; experiment: Induction of cell cycle arrest in human MIA PaCa-2 cells assessed as accumulation of cells at S phase at 0.1 uM incubated for 48 hrs by RNase/propidium iodide staining based flow cytometry analysis (Rvb =26.9 %); format: functional
[10] = test system: MIA PaCa-2; experiment: Induction of cell cycle arrest in human MIA PaCa-2 cells assessed as accumulation of cells in G2/M phase at 0.1 uM incubated for 24 hrs by RNase/propidium iodide staining based flow cytometry analysis (reference value: 8.11%); format: functional
[11] = test system: MIA PaCa-2; experiment: Induction of cell cycle arrest in human MIA PaCa-2 cells assessed as accumulation of cells in G2/M phase at 0.1 uM incubated for 48 hrs by RNase/propidium iodide staining based flow cytometry analysis (reference value: 2.71%); format: functional
[12] = test system: MIA PaCa-2; experiment: Induction of cell cycle arrest in human MIA PaCa-2 cells assessed as accumulation of cells in G0/G1 phase at 0.1 uM incubated for 24 hrs by RNase/propidium iodide staining based flow cytometry analysis (reference value: 64.3%); format: functional
[13] = test system: MIA PaCa-2; experiment: Induction of cell cycle arrest in human MIA PaCa-2 cells assessed as accumulation of cells in G0/G1 phase at 0.1 uM incubated for 48 hrs by RNase/propidium iodide staining based flow cytometry analysis (reference value: 70.4%); format: functional
[14] = test system: MIA PaCa-2; experiment: Induction of apoptosis in human MIA PaCa-2 cells assessed as viable cells at 0.1 uM incubated for 24 hrs by Annexin V-FITC/PI staining based flow cytometry analysis (reference value: 90.2%); format: functional; conditions: read-out: Activity
[15] = test system: MIA PaCa-2; experiment: Induction of apoptosis in human MIA PaCa-2 cells assessed as early apoptotic cells at 0.1 uM incubated for 24 hrs by Annexin V-FITC/PI staining based flow cytometry analysis (reference value: 5.1%); format: functional
[16] = test system: MIA PaCa-2; experiment: Induction of apoptosis in human MIA PaCa-2 cells assessed as late apoptotic cells at 0.1 uM incubated for 24 hrs by Annexin V-FITC/PI staining based flow cytometry analysis (reference value: 2.04%); format: functional
[17] = test system: MIA PaCa-2; experiment: Induction of apoptosis in human MIA PaCa-2 cells assessed as necrotic cells at 0.1 uM incubated for 24 hrs by Annexin V-FITC/PI staining based flow cytometry analysis (reference value: 2.7%); format: functional
[18] = test system: MIA PaCa-2; experiment: Induction of apoptosis in human MIA PaCa-2 cells assessed as live cells at 0.5 uM incubated for 24 hrs by Annexin V-FITC/PI staining based flow cytometry analysis (reference value: 90.2%); format: functional
[19] = test system: MIA PaCa-2; experiment: Induction of apoptosis in human MIA PaCa-2 cells assessed as early apoptotic cells at 0.5 uM incubated for 24 hrs by Annexin V-FITC/PI staining based flow cytometry analysis (reference value: 5.1%); format: functional
[20] = test system: MIA PaCa-2; experiment: Induction of apoptosis in human MIA PaCa-2 cells assessed as late apoptotic cells at 0.5 uM incubated for 24 hrs by Annexin V-FITC/PI staining based flow cytometry analysis (reference value: 2.04%); format: functional
[21] = test system: MIA PaCa-2; experiment: Induction of apoptosis in human MIA PaCa-2 cells assessed as necrotic cells at 0.5 uM incubated for 24 hrs by Annexin V-FITC/PI staining based flow cytometry analysis (reference value: 2.7%); format: functional
[22] = test system: MIA PaCa-2; experiment: Induction of apoptosis in human MIA PaCa-2 cells assessed as live cells at 0.1 uM incubated for 48 hrs by Annexin V-FITC/PI staining based flow cytometry analysis (reference value: 96.3%); format: functional
[23] = test system: MIA PaCa-2; experiment: Induction of apoptosis in human MIA PaCa-2 cells assessed as early apoptotic cells at 0.1 uM incubated for 48 hrs by Annexin V-FITC/PI staining based flow cytometry analysis (reference value: 1.8%); format: functional
[24] = test system: MIA PaCa-2; experiment: Induction of apoptosis in human MIA PaCa-2 cells assessed as necrotic cells at 0.1 uM incubated for 48 hrs by Annexin V-FITC/PI staining based flow cytometry analysis (reference value: 1.07%); format: functional
[25] = test system: MIA PaCa-2; experiment: Induction of apoptosis in human MIA PaCa-2 cells assessed as viable cells at 0.5 uM incubated for 48 hrs by Annexin V-FITC/PI staining based flow cytometry analysis (reference value: 96.3%); format: functional; conditions: read-out: Activity
[26] = test system: MIA PaCa-2; experiment: Induction of apoptosis in human MIA PaCa-2 cells assessed as early apoptotic cells at 0.5 uM incubated for 48 hrs by Annexin V-FITC/PI staining based flow cytometry analysis (reference value: 1.8%); format: functional
[27] = test system: MIA PaCa-2; experiment: Induction of apoptosis in human MIA PaCa-2 cells assessed as late apoptotic cells at 0.5 uM incubated for 48 hrs by Annexin V-FITC/PI staining based flow cytometry analysis (reference value: 0.8%); format: functional
[28] = test system: MIA PaCa-2; experiment: Induction of apoptosis in human MIA PaCa-2 cells assessed as necrotic cells at 0.5 uM incubated for 48 hrs by Annexin V-FITC/PI staining based flow cytometry analysis (reference value: 1.07%); format: functional

Compound: O=C(Nc1cc(OCCC2CCNCC2)cc2cccnc12)c1ncccn1
- IC50 [1]: > 10 µM
- IC50 [2]: > 10 µM
- IC50 [3]: > 10 µM

Compound: O=C(Nc1cccc2cccnc12)c1ncccn1
- IC50 [1]: 0.33 µM
- IC50 [2]: > 10 µM
- IC50 [3]: > 10 µM

Compound: Cc1cnc(C(=O)Nc2cc(OCCN(C)C)cc3cccnc23)cn1
- IC50 [1]: 1.8 µM
- IC50 [2]: 4.5 µM
- IC50 [3]: 9.67 µM

Compound: Cc1cnc(C(=O)Nc2cc(Cl)cc3cccnc23)cn1
- IC50 [1]: 1.5 µM
- IC50 [2]: 1.77 µM
- IC50 [3]: 5.2 µM

Compound: Nc1ccn([C@@H]2O[C@H](CO)[C@@H](O)C2(F)F)c(=O)n1 [GEMCITABINE]
- Activity [4]: 2.01%
- IC50 [2]: 0.2 µM
- IC50 at 72 h [5]: 14.4 µM
- IC50 at 72 h [6]: 0.05 µM
- IC50 at 72 h [7]: 0.001 µM
- Activity [8]: 78.03%
- Activity [9]: 89.3%
- Activity [10]: 0.93%
- Activity [11]: 0%
- Activity [12]: 21.04%
- Activity [13]: 10.8%
- viability at 0.1 µM [14]: 79.1%
- Activity [15]: 16.1%
- Activity [16]: 4%
- Activity [17]: 0.8%
- Activity [18]: 87.2%
- Activity [19]: 7.6%
- Activity [20]: 2.8%
- Activity [21]: 2.4%
- Activity [22]: 93.7%
- Activity [23]: 2.2%
- Activity [24]: 2.1%
- viability at 0.5 µM [25]: 90%
- Activity [26]: 5.2%
- Activity [27]: 2.3%
- Activity [28]: 2.6%

Compound: O=C(Nc1cccc2cccnc12)c1cnc(Cl)cn1
- IC50 [1]: 7 µM
- IC50 [2]: 9.3 µM
- IC50 [3]: > 10 µM

Compound: Cc1cnc(C(=O)Nc2cccc3ncccc23)cn1
- IC50 [1]: > 10 µM
- IC50 [2]: > 10 µM
- IC50 [3]: > 10 µM

Compound: O=C(Nc1cc(F)cc2cccnc12)c1ncccn1
- IC50 [1]: 0.3 µM
- IC50 [2]: 5.3 µM
- IC50 [3]: > 10 µM

Compound: CC(C)(C)OC(=O)NCCOc1cc(NC(=O)c2ncccn2)c2ncccc2c1
- IC50 [1]: > 10 µM
- IC50 [2]: > 10 µM
- IC50 [3]: > 10 µM

Compound: Cc1cnc(C(=O)Nc2cc(OCCC3CCN(C(=O)OC(C)(C)C)CC3)cc3cccnc23)cn1
- IC50 [1]: 9 µM
- IC50 [2]: 9.67 µM
- IC50 [3]: 9.33 µM

Compound: COc1cc(NC(=O)c2ncccn2)c2ncccc2c1
- IC50 [1]: 1.3 µM
- IC50 [2]: 9 µM
- IC50 [3]: > 10 µM

Compound: O=C(Nc1cccc2cccnc12)c1cccnn1
- IC50 [1]: 8.5 µM
- IC50 [2]: > 10 µM
- IC50 [3]: > 10 µM

Compound: CN(C)CCOc1cc(NC(=O)c2cnccn2)c2ncccc2c1
- IC50 [1]: > 10 µM
- IC50 [2]: > 10 µM
- IC50 [3]: > 10 µM

Compound: O=C(Nc1cc(Cl)cc2cccnc12)c1ncccn1
- IC50 [1]: 0.8 µM
- IC50 [2]: 4.67 µM
- IC50 [3]: > 10 µM

Compound: COc1cc(NC(=O)c2cnc(C)cn2)c2ncccc2c1
- IC50 [1]: 0.27 µM
- IC50 [2]: 0.8 µM
- IC50 [3]: 6.7 µM

Compound: Cc1cnc(C(=O)Nc2cc(OCCNC(=O)OC(C)(C)C)cc3cccnc23)cn1
- IC50 [1]: 0.67 µM
- IC50 [2]: 2.17 µM
- IC50 [3]: 3.67 µM

Compound: O=C(Nc1cccc2cccnc12)c1ccc(Br)nc1
- IC50 [1]: > 10 µM
- IC50 [2]: > 10 µM
- IC50 [3]: > 10 µM

Compound: Cc1ccc2cccc(NC(=O)c3cnccn3)c2n1
- IC50 [1]: > 10 µM
- IC50 [2]: > 10 µM
- IC50 [3]: > 10 µM

Compound: Cc1cnc(C(=O)Nc2cccc3cccnc23)cn1
- IC50 [1]: 0.5 µM
- IC50 [2]: 1.8 µM
- IC50 [3]: 9.4 µM

Compound: O=C(Nc1ccc(Br)c2cccnc12)c1cnccn1
- IC50 [1]: 0.75 µM
- IC50 [2]: 7 µM
- IC50 [3]: 7.5 µM

Compound: NCCOc1cc(NC(=O)c2cnccn2)c2ncccc2c1
- IC50 [1]: > 10 µM
- IC50 [2]: > 10 µM
- IC50 [3]: > 10 µM

Compound: O=C(Nc1cc(F)cc2cccnc12)c1cnccn1
- IC50 [1]: 0.13 µM
- IC50 [2]: 0.67 µM
- IC50 [3]: > 10 µM

Compound: Cc1cnc(C(=O)Nc2cccc3ccc(C)nc23)cn1
- IC50 [1]: > 10 µM
- IC50 [2]: > 10 µM
- IC50 [3]: > 10 µM
